Measurements from patent publication US20120328530A1, “TOLUIDINE BLUE DERIVATIVES AS PHOTOSENSITISING COMPOUNDS” (PHARMALUCIA LIMITED, priority 2010, published 2012).

How the values were obtained:
Assay type in all cases: cell-based
[1] = tested on: Candida albicans (NCPF 8179); experiment: Antifungal screening, minimum concentration; details: Sabouraud broth and agar, carried out similarly: illuminated twenty minutes, LEDs 660 nm, 6.2 J cm^-2; table does not say light or dark
Description: (§1) The photobactericidal efficacies of the compounds of examples 2a to 2d in addition to that of the known photosensitiser methylene blue were measured against both Gram positive Staphylococcus aureus (NCTC 6571), Enterococcus faecalis (NCIMB 13280) and Propionibacterium acnes (NCTC 737) and Gram negative Escherichia coli (NCTC 10418), Proteus mirabilis (NCIMB 5887) and a clinical strain of Pseudomonas aeruginosa bacteria. Propionibacterium acnes was grown in reinforced clostridial medium. All other strains were grown in Mueller-Hinton Broth and then diluted to a concentration of 10^6 colony-forming units/ml. Aliquots of the strains were then incubated for 1 hour at 37° C. in microtitre trays with various concentrations of photosensitiser in doubling dilutions from 100 μM, with zero photosensitiser concentrations in each case for control purposes. The trays were then either illuminated for twenty minutes using an array of light-emitting diodes (660 nm) giving a light dose of 6.2 J cm^−2 or alternatively foil-covered to provide dark controls. From each well showing an inhibition of growth of the micro-organism, 1 μl was sub-cultured on nutrient agar, using the Miles-Misra method, and incubated for 18 hours at 37° C. The minimum bactericidal concentrations were then determined as the lowest concentration for each photosensitiser giving no bacterial growth.
Antifungal screening was carried out similarly against the yeast Candida albicans (NCPF 8179), using Sabouraud broth and agar.

[2] = tested on: Escherichia coli (NCTC 10418); experiment: Photobactericidal efficacy, minimum bactericidal concentration; details: NCTC10418, 10^6 cfu/ml, 1 hour at 37° C. with photosensitiser, illuminated twenty minutes, LEDs 660 nm, 6.2 J cm^-2, table does not say light or dark, read-out: minimum concentration needed to achieve the antibacterial activity (minimum bactericidal concentration), E. coli
Description: as §1

[3] = tested on: clinical strain of Pseudomonas aeruginosa; experiment: as above; details: 10^6 cfu/ml, 1 hour at 37° C. with photosensitiser, illuminated twenty minutes, LEDs 660 nm, 6.2 J cm^-2, table does not say light or dark
Description: as §1

[4] = tested on: Enterococcus faecalis (NCIMB 13280); experiment: as above; details: 10^6 cfu/ml, 1 hour at 37° C. with photosensitiser, illuminated twenty minutes, LEDs 660 nm, 6.2 J cm^-2; table does not say light or dark
Description: as §1

[5] = tested on: Staphylococcus aureus (NCTC 6571); experiment: as above; details: NCTC6571, 10^6 cfu/ml, 1 hour at 37° C. with photosensitiser, illuminated twenty minutes, LEDs 660 nm, 6.2 J cm^-2, table does not say light or dark, read-out: minimum concentration needed to achieve the antibacterial activity (minimum bactericidal concentration), S. aureus
Description: as §1

[6] = tested on: Propionibacterium acnes (NCTC 737); experiment: as above; details: Cutibacterium acnes, NCTC737; reinforced clostridial medium, 1 hour at 37° C. with photosensitiser, illuminated twenty minutes, LEDs 660 nm, 6.2 J cm^-2; table does not say light or dark; read-out: minimum concentration needed to achieve the antibacterial activity (minimum bactericidal concentration), Prop. acnes
Description: as §1

[7] = tested on: Proteus mirabilis (NCIMB 5887); experiment: as above; details: 10^6 cfu/ml, 1 hour at 37° C. with photosensitiser, illuminated twenty minutes, LEDs 660 nm, 6.2 J cm^-2; table does not say light or dark
Description: as §1

SMILES	minimum concentration needed to achieve the antifungal activity, Candida albicans [1]	MBC [2]	minimum concentration needed to achieve the antibacterial activity (minimum bactericidal concentration), Pseudomonas Aeruginosa [3]	minimum concentration needed to achieve the antibacterial activity (minimum bactericidal concentration), Enterococcus facecalis [4]	MBC [5]	MBC [6]	minimum concentration needed to achieve the antibacterial activity (minimum bactericidal concentration), Proteus mirabilis [7]
CCc1cc2nc3ccc(N(C)C)cc3[s+]c2cc1N [Compound 2a]	3.13 µmol/L	1.47 µM	3.13 µM	1.35 µM	3.13 µM	0.78 µM	5.50 µM
CCCc1cc2nc3ccc(N(C)C)cc3[s+]c2cc1N [Compound 2b, 3-Amino-7-(dimethylamino)-2-n-propylphenothiazinium hydrogensulphate]	0.78 µmol/L	1.32 µM	0.78 µM	0.33 µM	3.13 µM	0.78 µM	5.32 µM
Cc1cc2c(cc1N)=[SH]c1cc(N(C)C)ccc1N=2 [toluidine blue, Toluidine blue]	12.5 µmol/L		7.36 µM	7.36 µM			14.71 µM
CN(C)c1ccc2nc3cc(-c4ccccc4)c(N)cc3[s+]c2c1 [Compound 2d, 3-Amino-7-(dimethylamino)-2-phenylphenothiazinium hydrogensulphate]	0.78 µmol/L	3.13 µM			3.13 µM		
CN(C)c1ccc2nc3cc(C(C)(C)C)c(N)cc3[s+]c2c1 [Compound 2c, 3-Amino-2-tert-butyl-7-(dimethylamino)phenothiazinium hydrogensulphate]	3.13 µmol/L	3.13 µM	0.39 µM		3.13 µM	0.78 µM	
